Assay results from patent US20130231360A1, “Beta-Carbolines as Inhibitors of Haspin and DYRK Kinases” (THE BRIGHAM AND WOMEN S HOSPITAL, INC., priority 2010, published 2013).
pIC50: −log10 of the molar value. Where two headings read alike, the source gives them in different places.

Target: T1, Haspin kinase (Homo sapiens, UniProt Q8TF76)
T1 construct: This full-length Haspin gene was cloned into the pMALc2E vector; made in house; host or cells: E. coli Rosetta 2(DE3)pLysS
T1 sequence (Q8TF76 1-798): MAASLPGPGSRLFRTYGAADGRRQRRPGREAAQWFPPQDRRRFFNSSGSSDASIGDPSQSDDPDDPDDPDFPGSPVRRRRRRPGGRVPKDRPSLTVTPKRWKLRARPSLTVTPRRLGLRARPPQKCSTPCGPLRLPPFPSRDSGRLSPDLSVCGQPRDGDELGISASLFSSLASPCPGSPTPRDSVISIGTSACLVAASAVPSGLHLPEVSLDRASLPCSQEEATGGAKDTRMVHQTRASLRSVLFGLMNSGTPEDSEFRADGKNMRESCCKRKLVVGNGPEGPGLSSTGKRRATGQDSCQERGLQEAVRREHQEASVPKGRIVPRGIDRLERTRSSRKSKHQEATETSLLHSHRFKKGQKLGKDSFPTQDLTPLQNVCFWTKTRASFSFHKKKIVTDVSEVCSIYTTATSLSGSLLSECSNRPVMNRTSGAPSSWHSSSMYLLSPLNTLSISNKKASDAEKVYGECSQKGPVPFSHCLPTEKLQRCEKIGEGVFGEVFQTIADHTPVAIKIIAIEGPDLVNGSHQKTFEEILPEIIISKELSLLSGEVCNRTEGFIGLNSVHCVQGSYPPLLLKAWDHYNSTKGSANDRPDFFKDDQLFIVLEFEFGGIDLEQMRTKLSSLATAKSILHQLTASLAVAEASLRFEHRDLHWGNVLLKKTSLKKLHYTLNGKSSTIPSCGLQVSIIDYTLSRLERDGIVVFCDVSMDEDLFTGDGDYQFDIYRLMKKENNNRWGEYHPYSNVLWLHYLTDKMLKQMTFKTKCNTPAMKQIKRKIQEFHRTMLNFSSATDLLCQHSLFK
Test: TR-FRET Haspin assay
Format: biochemical
Settings: for Haspin kinase inhibitory activity (in words): high throughput screen by TR-FRET, hits revalidated in radiometric assay and confirmed in cellular assay
Text: A synthetic codon-optimized human Haspin cDNA was made in vector pUC57 at GenScript Corporation (Piscataway, N.J.) to facilitate bacterial expression. This full-length Haspin gene was cloned into the pMALc2E vector (New England Biolabs, Ipswich, Mass.) using EcoR I and Sal I sites. Haspin was expressed and purified as an N-terminal MBP fusion protein from E. coli Rosetta™2(DE3)pLysS cells (Novagen, Madison, Wis.). A freshly transformed colony was used to initiate a small volume liquid culture in LB medium with 2 g/l glucose, 34 μg/ml chloramphenicol and 100 μg/ml ampicillin. This culture was used to inoculate a large volume of the same medium and grown until an absorbance at 600 nm of 0.5 was reached. Protein expression was induced by adding 0.3 mM isopropyl thiogalactoside and growth with shaking at room temperature for 14 hours. Affinity column chromatography was carried out using amylose resin following the manufacturer's instructions (New England Biolabs). The fusion protein was eluted in 50 mM Tris, pH 7.5, 200 mM NaCl, 10 mM maltose and dialyzed into 50 mM Tris, pH 7.5, 200 mM NaCl, 2 mM DTT and 50% glycerol. The purity and yield of intact fusion protein was determined by SDS-PAGE and Coomassie Blue staining, in comparison with known quantities of bovine serum albumin.
This peptide carried biotin on the side chain of the C-terminal lysine. Recombinant full-length human histone H3 was from New England Biolabs. ATP and Staurosporine were purchased from Sigma-Aldrich (St Louis, Mo.). Rabbit monoclonal anti-Histone H3T3ph antibody (clone JY325) from Millipore (Billerica, Mass.) was directly labeled by PerkinElmer (Waltham, Mass.) with LANCE Eu W1024. For indirect detection, LANCE Eu W1024 labeled anti-rabbit IgG antibody was used (PerkinElmer). Streptavidin conjugated to SureLight-Allophycocyanin (PerkinElmer) was used as the acceptor fluorophore.
A CRS CataLyst Express robotic arm (Thermo Fisher Scientific, Waltham, Mass.) and a Cybi-well 384 channel simultaneous pipettor (CyBio AG, Jena, Germany) were used to carry out the high throughput screening of a small molecule library. Kinase reactions were performed in 50 mM Tris, pH 7.5, 5 mM MgCl2, 1 mM DTT, 0.01% Brij-35 using Proxiplate 384 Plus white assay plates (PerkinElmer). […] The reaction was incubated for 10 minutes at room temperature. The reaction was terminated by addition of […] 50 mM EDTA, 2 nM Europium labeled anti-Histone H3T3ph antibody, 40 nM Streptavidin-APC. After a two hour incubation at room temperature, TR-FRET measurements were performed using a PHERAstar HTS microplate reader (BMG Labtech, Offenberg, Germany), and were expressed as ratios of acceptor fluorescence at 665 nm over donor fluorescence at 620 nm.
Data were analyzed using GraphPad Prism Version 4 (GraphPad Software Inc, La Jolla, Calif.). No inhibitor (“MAX”) and Staurosporine inhibitor (“MIN”) controls were used to calculate Z′ values and signal to background ratios during the high throughput screen. […] Km concentrations were also determined by non-linear regression.
To identify Haspin inhibitors by high throughput screening a homogeneous kinase assay based on time-resolved fluorescence resonance energy transfer (TR-FRET) was designed (Patnaik D., et al. J Biomol. Screen 13: 1025-1034, […].). This TR-FRET assay was utilized to screen a small molecule library of approximately 140,000 compounds. Primary hits were re-tested by TR-FRET assay using the peptide substrate and then revalidated by assaying the compounds in a radiometric assay using full-length Histone H3 as a protein substrate.
IC50 values were determined for inhibition of Haspin kinase utilizing the TR-FRET assay described in Example 3.

[1] = inhibition of Haspin kinase, TR-FRET assay of Example 3, MBP-Haspin, H3(1-21)-biotin peptide 0.1 μM, ATP 200 μM, read-out: IC50

Compound | pIC50 [1] | pIC50 (read-out: IC50) | also measured
COc1ccc2c3ccncc3n(CCCCN)c2c1 [LDN-209983] | > 6.46 |  | 
COc1ccc2c(c1)[nH]c1ncccc12 [LDN-209919] |  | < 4.00 | 
COc1ccc2c(c1)c1ccnc(C)c1n2CCCCN [LDN-211894] | > 5.52 |  | 
Cc1nccc2c3ccc(O)cc3n(CCCCN)c12 [LDN-209986] | > 6.70 |  | 
Cc1nccc2c3cc4c(cc3n(CCCCN)c12)OCO4 [LDN-211896] | > 6.15 |  | 
CNCCCCn1c2cc(OC)ccc2c2ccnc(C)c21 [LDN-211900] | > 6.40 |  | 
COc1ccc2c3ccnc(C)c3n(CCCCN)c2c1Cl [LDN-211897] | > 5.92 |  | 
harmol [LDN-21813, reference compound] | > 5.82 |  | Haspin kinase inhibitory activity (in words): identified as a Haspin kinase inhibitors
Cc1nccc2c1[nH]c1cc(OCCCCN)ccc12 [LDN-209932] | > 5.70 |  | 
c1ccc2c(c1)[nH]c1cnccc12 [LDN-14063] |  | < 5.00 | 
COc1ccc2c(c1)[nH]c1c(C)nccc12 [LDN-97388, harmine, reference compound] |  |  | pIC50: > 6.00; Haspin kinase inhibitory activity (in words): identified as a Haspin kinase inhibitors
COc1ccc2c3ccnc(C(C)C)c3n(CCCCN)c2c1 [LDN-209985] | > 6.22 |  | 
NCCCCn1c2cc(O)ccc2c2ccnc(C(F)(F)F)c21 [LDN-211998] | > 6.52 |  | 
COc1cccc2c3ccnc(C)c3n(CCCCN)c12 [LDN-211893] | > 6.52 |  | 
COc1ccc2c(c1)[nH]c1ccccc12 [LDN-209934] |  | < 6.00 | 
Cc1nccc2c1[nH]c1cc(OCCCN)ccc12 [LDN-209931] | > 6.00 |  | 
COc1ccc2c3ccnc(C)c3n(CCCC(N)c3ccccc3)c2c1 (centres unmarked) [LDN-211902] |  | > 6.70 | 
COc1ccc2c3ccnc(C)c3n(CCCCN)c2c1 [LDN-211901] | > 6.30 |  | 
COc1ccc2c3ccnc(C)c3n(CCCCN)c2c1 [LDN-209953] | > 6.70 |  | 
COc1ccc2c(c1)[nH]c1c(/C=C/c3ccccc3)nccc12 [LDN-57292] |  | > 5.70 | Haspin kinase inhibitory activity (in words): identified as a Haspin kinase inhibitors
Cc1nccc2c3ccc(F)cc3n(CCCCN)c12 [LDN-209987] | > 6.22 |  | 
Cc1nccc2c1[nH]c1cc(OCCCCNC(=O)OC(C)(C)C)ccc12 [LDN-209920] |  | < 5.00 | 
Cc1nccc2c1[nH]c1cc(OCCCNC(=O)OC(C)(C)C)ccc12 [LDN-209921] |  | < 5.00 | 
COc1ccc2c3ccnc(C(F)(F)F)c3n(CCCCN)c2c1 [LDN-211898] | > 6.82 |  | 
Cc1nccc2c3ccc(OC(C)(C)C)cc3n(CCCCN)c12 [LDN-211903] |  | > 5.30 | 
Cc1nccc2c3ccc(NS(C)(=O)=O)cc3n(CCCCN)c12 [LDN-211899] | > 6.00 |  | 
COc1cccc2c1c1ccnc(C)c1n2CCCCN [LDN-211895] | > 5.46 |  | 
CCc1nccc2c3ccc(OC)cc3n(CCCCN)c12 [LDN-209984] | > 6.70 |  | 
COc1ccc2c(c1)[nH]c1c(-c3ccccc3)nccc12 [LDN-209952] |  | < 5.30 | 
